From US20240011027A1, “METHODS AND COMPOSITIONS FOR RESTORING STMN2 LEVELS” (President and Fellows of Harvard College, priority 2020, published 2024)
Where a SMILES comes first, the peptide text is derived from it. The star is where a group is joined. Cbz = O=C(OCc1ccccc1)*

What was measured:
Type in all cases: cell-based, human
STMN2 RNA = test: qRT-PCR of full-length STMN2 after proteasome inhibition with MG-132 in patient's motor neurons; settings: MG-132 (1 uM); patient's neurons
From the text: It was established that ASO (SJ+94) and ASO (SJ-1) suppressed cryptic splicing of STMN2 and restored full length STMN2 RNA in the patient's motor neurons when there is a reduction in nuclear TDP-43. […] Post-mortem tissue studies have shown that TDP-43 mis-localization and its aggregation in cytoplasm is a hallmark of sporadic ALS. Several groups have reported cytoplasmic aggregation of TDP-43 akin to that observed in post-mortem tissue of sporadic ALS patients occurs in response to pharmacological inhibition of the proteasome (1, 4).

proteasome = proteasome activity assay in hMNs treated with MG-132; settings: overnight 1 μM treatment
TDP-43 [1] = test: TDP-43 localization by immunostaining, Pearson's correlation with DAPI, after MG-132 pulse-chase
Experimental: For immunofluorescence, cells were fixed with ice-cold 4% PFA for 15 minutes at 4° C., permeabilized with 0.2% Triton-X in lx PBS for 45 minutes and blocked with 10% donkey serum in lx PBS-T (0.1% Tween-20) for 1 hour. Cells were then incubated overnight at 4° C. with primary antibody (diluted in blocking solution). At least 4 washes (5 min incubation each) with 1×PBS-T were carried out, before incubating the cells with secondary antibodies for 1 hour at room temperature (diluted in blocking solution). Nuclei were stained with DAPI. The following antibodies were used in this study: Hb9 (1:100, DSHB, MNR2 81.5C10-c), TUJ1 (1:1000, Sigma, T2200), MAP2 (1:10000, Abcam ab5392), Ki67 (1:400, Abcam, ab833), GFP (1:500, Life Technologies™, A10262), Islet1 (1:500, Abcam ab20670), TDP-43 (1:500, ProteinTech Group), STMN2 (1:4000, Novus), AlexaFluor™ 647-Phalloidin (1:200,). Secondary antibodies used (488, 555, 594, and 647) were AlexaFluor™ (1:1000, Life Technologies™) and DyLight (1:500, Jackson ImmunoResearch Laboratories). Micrographs were analyzed using FIJI software to determine the correlation coefficient.

TDP-43 [2] = test: immunoblot of TDP-43 in detergent-soluble (RIPA) and detergent-insoluble (UREA) fractions after MG-132
Experimental: (§1) To determine what happened to TDP-43 after proteasome inhibition, TDP-43 levels were examined by immunoblot analysis in both the detergent-soluble and detergent-insoluble fractions. […] Finally, STMN2 levels in neurons treated with either a short-term high dose or a long-term low dose of MG-132 were probed.
For analysis of TDP-43 and STMN2 protein expression levels, d10 MNs were lysed in RIPA buffer (150 mM Sodium Chloride; 1% Triton X-100; 0.5% sodium deoxycholate; 0.1% SDS; 50 mM Tris pH 8.0) containing protease and phosphatase inhibitors (Roche) for 20 min on ice, and centrifuged at high speed. 200 μL of RIPA buffer per well of 24-well culture were routinely used, which yielded ˜20 μg of total protein as determined by BCA (Thermo Scientific). After two washes with RIPA buffer, insoluble pellets were resuspended in 200 μl of UREA buffer (Bio-Rad). For immunoblot assays 2-3 μg of total protein were separated by SDS-PAGE (BioRad), transferred to PDVF membranes (BioRad) and probed with antibodies against TDP-43 (1:1000, ProteinTech Group), GAPDH (1:1000, Millipore) and STMN2 (1:3000, Novus). Insoluble pellets were loaded based on protein concentration of correspondent RIPA-soluble counterparts. […] GAPDH levels were used to normalized each sample, and LiCor software was used to quantitate protein band signal.

STMN2 [3] = test: qRT-PCR of STMN2 expression in hMNs treated with proteasome inhibitors; settings: short-term high dose or long-term low dose
Experimental: as §1
Total RNA was isolated from d10 MNs for RNA-Seq experiments and validation assays using Trizol LS (Invitrogen) according to manufacturer's instructions. 500 μL were added per well of the 24-well cultures. A total of 300-1000 ng of total RNA was used to synthesize cDNA by reverse transcription according to the iSCRIPT kit (Bio-rad). Quantitative RT-PCR (qRT-PCR) was then performed using SYBR green (Bio-Rad) and the iCycler system (Bio-rad). Quantitative levels for all genes assayed were normalized using GAPDH expression. […] All primer sequences are available upon request. For next-generation RNA sequencing (RNA-Seq), at least two technical replicas per siRNA sample or AAVS1-TDP43 genotype were included in the analyses. After RNA extraction, samples with RNA integrity numbers (RIN) above 7.5, determined by a bioAnalyzer, were used for library preparation. […] All FASTQ files were analyzed using the bcbioRNASeq workflow and toolchain (90). […]

STMN2 [4] = test: STMN2 mRNA expression in HUES3, IG2 (Stmn2 KO) and CN7 (cryptic exon deletion) lines stressed with MG132; settings: 1 uM for 24 hours
Experimental: Three cell lines, HUES3, IG2 (Stmn2 KO), and CN7 (cryptic exon deletion) were treated with normal media or media+1 uM MG132 for 24 hours to stress the cells. In HUES3 cells, the stressed condition had 52% STMN2 mRNA expression compared to the unstressed condition. In IG2 (Stmn2 KO) condition, unstressed cells had 13% expression, and when stressed, expression increased to 42%. […] It was shown that if several exons are knocked out the expression goes down, but if the TDP-43 binding site is removed, expression goes way up.

STMN2 cryptic exon = test: RT-PCR detection of transcripts containing the STMN2 cryptic exon in hMNs treated with proteasome inhibitors
Experimental: It was then asked if cryptic exon inclusion could be contributing to decreased STMN2 levels in hMNs after proteasome inhibition. To accomplish this goal, an RT-PCR assay was developed to detect transcripts containing the cryptic exon (FIG. 5F). […] Total RNA was isolated from neurons using RNeasy Mini Kit (Qiagen) according to manufacturer's instructions. A total of 300-1000 ng of total RNA was used to synthesize cDNA by reverse transcription according to the iSCRIPT kit (Bio-rad). RT-PCR was then performed using one cryptic exon-specific primer and then analyzed using the Agilent 2200 Tapestation.

Question: For `CC(C)C[C@@H](C=O)NC(=O)[C@H](CC(C)C)NC(=O)[C@H](CC(C)C)NC(=O)OCc1ccccc1` [MG-132] (Cbz-Leu-Leu-Leu-aldehyde), which “STMN2 expression after proteasome inhibition” value (STMN2 RNA) is on record?
Answer: decreased STMN2 expression

Question: What about the proteasome activity (proteasome) of the same compound?
Answer: less than 10 % of normal activity

Question: And the “TDP-43 staining in the nucleus” value (TDP-43 [1]; 24 hour 1 μM pulse, hMNs)?
Answer: greatly diminished

Question: What about the “TDP-43 staining following washout” value (TDP-43 [1]; after 24 hour 1 μM pulse and washout) of the same compound?
Answer: indistinguishable to unchallenged neurons after 4 days

Question: And the “TDP-43 levels in soluble lysates” value (TDP-43 [2]; control neurons treated with a low dose)?
Answer: significantly decreased TDP-43 levels

Question: What about the “TDP-43 in UREA (insoluble) fraction” value (TDP-43 [2]; proteasome inhibition) of the same compound?
Answer: triggers TDP-43 to become insoluble

Question: And the “STMN2 mRNA levels” value (STMN2 [3])?
Answer: significant decreases

Question: What about the “STMN2 mRNA expression” value (STMN2 [4]; CN7 (Cryptic Exon Deletion) cells, unstressed 729%) of the same compound?
Answer: 473%

Question: What about the “STMN2 mRNA expression compared to the unstressed condition” value (STMN2 [4]; HUES3 cells) of the same compound?
Answer: 52%

Question: What about the “STMN2 mRNA expression” value (STMN2 [4]; IG2 (Stmn2 KO) cells, unstressed 13%) of the same compound?
Answer: 42%

Question: And the “transcripts containing the STMN2 cryptic exon (PCR assay)” value (STMN2 cryptic exon)?
Answer: presence of transcripts containing the STMN2 cryptic exon
